Experimental data: article PMC5522529, “Mechanisms of Paradoxical Activation of AMPK by the Kinase Inhibitors SU6656 and Sorafenib” (Cell Chemical Biology, 2017)

Experiments:
AMPK = AMPK activity and Thr172 phosphorylation in HEK293 cells; format: cell-based, human; conditions: 1 hr
Protocol: Figure 1 SU6656 Activates AMPK but Not AMPK-Related Kinases (A) HEK293 cells were incubated with the indicated concentrations of SU6656 or berberine (300 μM) for 1 hr; total AMPK activity was assayed in immunoprecipitates (top; mean ± SEM, n = 4), and phosphorylation of AMPK (Thr172), ACC (Ser80), and Raptor (Ser792) analyzed by western blotting (bottom; n = 2). (B) HEK293 cells were incubated with 100 μM SU6656 (1 hr), AMPK complexes containing α1, α2, β1, and β2 immunoprecipitated using isoform-specific antibodies, and AMPK activity measured (mean ± SEM, n = 4). (C) HeLa cells stably expressing LKB1 ([Fogarty et al., 2010]) were incubated with 100 μM SU6656 for 1 hr, AMPK or individual ARKs immunoprecipitated, and kinase assays carried out (antibodies that distinguish MARK2/MARK3 were not available, so they were assayed together). Results are means ± SEM (n = 2). In all panels, asterisks indicate significant differences from controls without SU6656. *p < 0.05, **p < 0.01, ****p < 0.0001. […]
Endogenous AMPK was immunoprecipitated using the specified antibodies (for total AMPK, an equal mixture of anti-α1 and –α2 antibodies) and assayed at 200 μM ATP ([Hardie et al., 2000], [Towler et al., 2008]) using the AMARA peptide ([Dale et al., 1995]) as substrate, except for assays of allosteric activation by AMP (Figure 5A) where the SAMS peptide was used as substrate with 2 mM ATP ([Gowans et al., 2013]). The AMPK-related kinases SIK1, SIK2, SIK3, SNARK, MARK2/3 and MARK4 were immunoprecipitated and assayed as previously described ([Lizcano et al., 2004]) in lysates of Hela cells stably expressing LKB1 ([Fogarty et al., 2010]). LKB1 was assayed using the LKBtide peptide as substrate ([Sakamoto et al., 2004]).

HEK293 cells = test: Cellular AMP:ATP and ADP:ATP ratios; format: cell-based, human; conditions: 1 hr
Protocol: (B) WT or RG cells were treated as in (A) and nucleotides extracted for analysis (mean ± SD, n = 3). […] (E) (See also Figure S2) Time courses of cellular oxygen uptake before and after addition of the indicated concentrations of sorafenib (SO, μM), SU6656 (100 μM) or phenformin (PHEN, 10 mM) (mean ± SEM, n = 4). (F) Effect of various concentrations of sorafenib or phenformin (10 mM) on activation (top, mean ± SEM, n = 3) or phosphorylation (bottom) of AMPK in cells expressing wild-type AMPK-γ2 (WT) or the R531G mutant AMPK-γ2 (RG). In all panels, asterisks show significant differences from DMSO controls (ns, not significant). In (B), daggers (†) show significant differences between results in WT and RG cells. *p < 0.05, **p < 0.01, ***p < 0.001, ****p < 0.0001, ^††††p < 0.0001.
Cells were incubated for 60 min and AMPK activity measured; results in the top panel are means ± SEM (n = 8), with significant differences from the DMSO control indicated (ns, not significant). The bottom panels show western blots from the same experiment (n = 2). (B) Analysis of AMP:ATP and ADP:ATP ratios from a parallel experiment to that in (A). Results are means ± SEM (n = 3), with significant differences from the DMSO control indicated. *p < 0.05, **p < 0.01, ****p < 0.0001.
The levels of AMP, ADP and ATP were measured using a TSQ Quantiva interfaced with Ultimate 3000 Liquid Chromatography system (ThermoScientific), equipped with a porous graphitic carbon column (HyperCarb 30x1mm ID 3 μm; Part No: C-35003-031030, Thermo-Scientific). Mobile phase buffer A consisted of 0.3% (v/v) formic acid adjusted to pH 9 with ammonia prior to a 1:10 dilution. Mobile phase buffer B was 80% (v/v) acetonitrile. The column was maintained at a controlled temperature of 30°C and was equilibrated with 10% buffer B for 5 minutes at a constant flow rate of 0.06 mL/min. Aliquots of 1 μL of each sample were loaded onto the column and compounds eluted with a linear gradient of 10%-60% buffer B over 9 min. Buffer B was then increased to 100% within 1 min, and the column washed for 5 min with 100% Buffer B. Eluents were sprayed into the TSQ Quantiva using Ion Max NG ion source with ion transfer tube temperature set to 350°C and vaporizer temperature 125°C. The TSQ Quantiva was run in negative mode with a spray voltage of 2600, sheath gas 40 and Aux gas 10. Levels of ATP, ADP and AMP were measured using multiple reactions monitoring mode (MRM) with optimised collision energies and radio frequencies previously determined by infusing pure compounds. Three transitions were used to monitor each of the three compounds, ATP (505.92>158.98, 505.92>408.12 and 505.92>426.12), ADP (426.98>158.98, 426.98>328.78 and 426.98>409.09) and AMP (345.96>134.20, 345.96>151.27 and 345.96>211.12).

AMPK-α1 (WT) = biological target: T1, AMPK-α1 (WT) (Homo sapiens, UniProt Q13131); test: AMPK activity of FLAG-tagged AMPK-α1 (WT) expressed in HEK293 cells; format: cell-based; conditions: for AMPK activity and Thr172 phosphorylation: WT FLAG-α1, A769662 300 μM, berberine 300 μM, phenformin 10 mM, troglitazone 100 μM, oligomycin 1 μM, SU6656 100 μM
T1 construct: we expressed FLAG-tagged full-length AMPK-α1 either as the WT or the AT mutant; expressed in transfected cells; host or cells: HEK293
T1 sequence (Q13131 whole entry): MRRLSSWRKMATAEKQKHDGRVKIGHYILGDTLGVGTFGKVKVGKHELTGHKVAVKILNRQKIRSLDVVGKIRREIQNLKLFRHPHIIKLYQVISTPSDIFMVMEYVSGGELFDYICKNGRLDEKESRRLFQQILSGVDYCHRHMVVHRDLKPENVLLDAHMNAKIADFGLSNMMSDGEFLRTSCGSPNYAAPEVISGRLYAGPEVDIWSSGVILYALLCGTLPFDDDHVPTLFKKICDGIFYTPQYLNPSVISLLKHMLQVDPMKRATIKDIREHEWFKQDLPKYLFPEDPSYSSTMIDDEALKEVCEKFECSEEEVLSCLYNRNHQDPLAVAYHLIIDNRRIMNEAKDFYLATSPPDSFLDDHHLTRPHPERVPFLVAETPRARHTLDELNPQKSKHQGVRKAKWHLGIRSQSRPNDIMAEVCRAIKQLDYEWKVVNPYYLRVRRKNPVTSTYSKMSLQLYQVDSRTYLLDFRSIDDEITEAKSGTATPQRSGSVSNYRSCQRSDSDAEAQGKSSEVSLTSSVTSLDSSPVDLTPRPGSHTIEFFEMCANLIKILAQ
T1 sequence (P54619 whole entry partner): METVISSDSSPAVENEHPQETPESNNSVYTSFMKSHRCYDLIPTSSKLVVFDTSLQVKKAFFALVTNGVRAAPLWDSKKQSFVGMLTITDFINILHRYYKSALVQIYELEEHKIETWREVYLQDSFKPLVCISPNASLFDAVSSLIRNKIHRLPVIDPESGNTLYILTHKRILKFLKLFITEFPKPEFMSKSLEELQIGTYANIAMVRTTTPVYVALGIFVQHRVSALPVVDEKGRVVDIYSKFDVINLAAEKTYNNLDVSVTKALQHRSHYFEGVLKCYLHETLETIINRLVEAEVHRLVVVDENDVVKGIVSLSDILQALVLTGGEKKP
Source text: (B) Western blotting of the same preparations as in (A). […] (D) Allosteric activation of WT and mutant α1β1γ1 complexes by MT 63-78, curve fitting as for (C). […] (E) Allosteric activation of WT and mutant α1β1γ1 complexes by AMP. Data were fitted to the equation for activation/inactivation by AMP ([Gowans et al., 2013]). […] (F) Activation of WT and AA mutant by various AMPK activators in HEK293 cells. […] FLAG-tagged complexes were isolated by immunoprecipitation and AMPK activity determined (mean ± SEM, n = 2).
We next expressed the FLAG-tagged WT or AA mutant of AMPK-α1 by transient transfection in HEK293 cells, treated with various agents, and measured AMPK activity in anti-FLAG immunoprecipitates. In Figure 4F, the results are expressed as absolute activities and are accompanied by blots showing Thr172 phosphorylation.
The α1-KD was precipitated using anti-FLAG and endogenous AMPK complexes using anti-α1 antibody, and activity determined. […] (B) Western blots (n = 2) using the indicated antibodies; samples from experiment in (A). (C) DNAs encoding FLAG-tagged AMPK-α1 (WT or AT mutant) were expressed by transient transfection in HEK293 cells, the cells treated with increasing concentrations of SU6656 for 1 hr, AMPK complexes precipitated with anti-FLAG, and activity measured.

Row | AMPK activity (AMPK-α1 (WT); WT FLAG-α1 (comparison with AT mutant), 1 hr) | increase in activity and Thr172 phosphorylation (AMPK-α1 (WT); WT FLAG-α1, 100 μM, relative to DMSO control) | SMILES | activation of AMPK complexes by subunit isoform (AMPK; 100 μM, isoform-specific antibodies) | AMPK activity / Thr172 phosphorylation (AMPK) | cellular AMP:ATP and ADP:ATP ratios (HEK293 cells) | AMPK activity and Thr172 phosphorylation (AMPK-α1 (WT); 1 hr)
1 | robustly activated | 3 fold | CN(C)S(=O)(=O)c1ccc2c(c1)/C(=C/c1cc3c([nH]1)CCCC3)C(=O)N2 [SU6656] | activate AMPK complexes containing the α1, α2, β1, and β2 subunit isoforms | caused activation of AMPK | no significant effects | activated AMPK and caused Thr172 phosphorylation
2 | – | – | COc1ccc2cc3[n+](cc2c1OC)CCc1cc2c(cc1-3)OCO2 [berberine] | – | much smaller degree of AMPK activation | robustly increased | activated AMPK and caused Thr172 phosphorylation
3 | – | – | CNC(=O)c1cc(Oc2ccc(NC(=O)Nc3ccc(Cl)c(C(F)(F)F)c3)cc2)ccn1 [sorafenib] | – | activated AMPK | increased cellular AMP:ATP and ADP:ATP ratios to a similar or even greater extent than phenformin | –
